What all share (assay type): biochemical
Assay [1] addresses T1, human FGFR4 (Homo sapiens, UniProt P22455).
T1 construct: purchased Invitrogen P3054
Description: 33P isotope-labeled kinase activity test, FGFR4. The following applies: ATP 100 μM. How it is done:
(§1) The inhibitory activities of the tested compounds on human FGFR1, FGFR4, and c-Met were evaluated by the IC50 values measured using ^33P isotope-labeled kinase activity test (Reaction Biology Corp).
(§2) Buffer condition: 20 mM Hepes (pH 7.5), 10 mM MgCl2, 1 mM EGTA, 0.02% Brij35, 0.02 mg/mL BSA, 0.1 mM Na3VO4, 2 mM DTT, 1% DMSO.
(§3) Test procedure: The test compounds were dissolved in DMSO at room temperature and formulated to be 10 mM solutions for later use. The substrates were dissolved in freshly prepared buffer, and kinases to be tested were added and mixed well. The test compounds dissolved in DMSO were added to the above mixed reaction solutions by acoustic technique (Echo 550). The concentration of the compound in reaction solution was 1 μM, 0.25 μM, 0.156 μM, 3.91 nM, 0.977 nM, 0.244 nM, 0.061 nM, 0.0153 nM, 0.00381 nM or 10 μM, 2.50 μM, 0.62 μM, 0.156 μM, 39.1 nM, 9.8 nM, 2.4 nM, 0.61 nM, 0.15 nM, 0.038 nM. After incubation for 15 min, ^33P-ATP (activity 0.01 μCi/μL, corresponding concentrations are listed in Table 1) was added to start the reaction. Supplier item number, batch number, as well as the concentration information in the reaction solution of FGFR1, FGFR4, c-Met and substrates thereof are listed in Table 1. […] The kinase activity data are expressed by comparison between the kinase activity in the test compound group and the kinase activity in the blank group (containing DMSO only). IC50 values were obtained by curve fitting with Prism4 software (GraphPad).

The target in assay [2] is T2, human c-Met (Homo sapiens, UniProt P08581).
T2 construct: purchased Invitrogen PV3143
Description: 33P isotope-labeled kinase activity test, c-Met. The conditions noted are these: ATP 10 μM. How it is done:
as §1, §2, §3

For assay [3], the target named is T3, human FGFR1 (Homo sapiens, UniProt P11362).
T3 construct: purchased Invitrogen PV3146
Put plainly: 33P isotope-labeled kinase activity test, FGFR1. The conditions noted are these: ATP 5 μM. How it is done: as §1, §2
as §3, with “The concentration of the compound in reaction solution was 1 μM, 0.25 μM, 0.156 μM, 3.91 nM, 0.977 nM, 0.244 nM, 0.061 nM, 0.0153 nM, 0.00381 nM or 10 μM, 2.50 μM, 0.62 μM, 0.156 μM, 39.1 nM, 9.8 nM, 2.4 nM, 0.61 nM, 0.15 nM, 0.038 nM.” left out

Counter-ions that a name gives are not always drawn. Bounds are passed on as bounds.

The term IC50 denotes the concentration at which inhibition is half-maximal. Higher therefore signals weaker potency.

T1 sequence (P22455 22-802): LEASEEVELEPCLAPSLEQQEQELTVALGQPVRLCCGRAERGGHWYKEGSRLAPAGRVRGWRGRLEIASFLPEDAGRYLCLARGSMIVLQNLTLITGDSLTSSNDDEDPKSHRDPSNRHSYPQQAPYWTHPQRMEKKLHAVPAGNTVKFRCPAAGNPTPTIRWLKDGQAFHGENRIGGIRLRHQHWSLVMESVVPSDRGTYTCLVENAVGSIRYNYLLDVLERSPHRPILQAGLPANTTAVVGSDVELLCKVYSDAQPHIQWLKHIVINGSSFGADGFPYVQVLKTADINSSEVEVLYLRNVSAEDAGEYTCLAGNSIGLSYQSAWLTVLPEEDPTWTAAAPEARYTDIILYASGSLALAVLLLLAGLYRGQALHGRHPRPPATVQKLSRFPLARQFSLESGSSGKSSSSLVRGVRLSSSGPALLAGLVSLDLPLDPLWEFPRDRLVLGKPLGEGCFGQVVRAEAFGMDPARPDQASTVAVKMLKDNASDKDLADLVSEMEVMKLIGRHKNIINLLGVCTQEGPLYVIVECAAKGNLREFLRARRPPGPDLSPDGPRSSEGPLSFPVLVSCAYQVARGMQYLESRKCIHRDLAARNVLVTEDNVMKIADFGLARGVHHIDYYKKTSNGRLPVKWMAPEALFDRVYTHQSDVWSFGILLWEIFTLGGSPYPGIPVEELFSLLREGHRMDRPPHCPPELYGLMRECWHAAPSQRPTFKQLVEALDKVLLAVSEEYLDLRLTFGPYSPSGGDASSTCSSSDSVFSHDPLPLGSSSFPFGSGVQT
T3 sequence (P11362 22-822): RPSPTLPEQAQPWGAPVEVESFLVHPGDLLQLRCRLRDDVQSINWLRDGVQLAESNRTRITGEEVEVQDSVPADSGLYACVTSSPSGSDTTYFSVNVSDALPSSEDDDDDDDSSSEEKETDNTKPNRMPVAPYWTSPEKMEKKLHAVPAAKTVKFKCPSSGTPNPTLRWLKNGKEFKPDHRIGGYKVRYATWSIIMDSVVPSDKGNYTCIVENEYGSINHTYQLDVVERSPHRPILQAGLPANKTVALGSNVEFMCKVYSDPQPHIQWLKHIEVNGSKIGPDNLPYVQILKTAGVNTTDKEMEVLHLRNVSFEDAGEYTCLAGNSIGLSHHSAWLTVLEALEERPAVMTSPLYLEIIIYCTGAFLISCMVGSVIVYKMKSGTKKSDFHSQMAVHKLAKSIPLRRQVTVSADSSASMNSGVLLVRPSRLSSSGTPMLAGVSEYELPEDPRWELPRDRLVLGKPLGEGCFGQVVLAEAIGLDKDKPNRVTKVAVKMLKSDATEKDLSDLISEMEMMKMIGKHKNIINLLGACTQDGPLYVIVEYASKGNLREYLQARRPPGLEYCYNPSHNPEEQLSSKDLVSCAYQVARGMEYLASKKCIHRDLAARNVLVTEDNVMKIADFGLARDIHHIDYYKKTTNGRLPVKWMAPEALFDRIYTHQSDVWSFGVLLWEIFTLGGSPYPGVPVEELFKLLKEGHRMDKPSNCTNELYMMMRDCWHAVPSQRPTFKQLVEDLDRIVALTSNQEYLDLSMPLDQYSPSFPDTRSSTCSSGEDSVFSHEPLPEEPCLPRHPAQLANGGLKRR
T2 sequence (P08581 25-1390): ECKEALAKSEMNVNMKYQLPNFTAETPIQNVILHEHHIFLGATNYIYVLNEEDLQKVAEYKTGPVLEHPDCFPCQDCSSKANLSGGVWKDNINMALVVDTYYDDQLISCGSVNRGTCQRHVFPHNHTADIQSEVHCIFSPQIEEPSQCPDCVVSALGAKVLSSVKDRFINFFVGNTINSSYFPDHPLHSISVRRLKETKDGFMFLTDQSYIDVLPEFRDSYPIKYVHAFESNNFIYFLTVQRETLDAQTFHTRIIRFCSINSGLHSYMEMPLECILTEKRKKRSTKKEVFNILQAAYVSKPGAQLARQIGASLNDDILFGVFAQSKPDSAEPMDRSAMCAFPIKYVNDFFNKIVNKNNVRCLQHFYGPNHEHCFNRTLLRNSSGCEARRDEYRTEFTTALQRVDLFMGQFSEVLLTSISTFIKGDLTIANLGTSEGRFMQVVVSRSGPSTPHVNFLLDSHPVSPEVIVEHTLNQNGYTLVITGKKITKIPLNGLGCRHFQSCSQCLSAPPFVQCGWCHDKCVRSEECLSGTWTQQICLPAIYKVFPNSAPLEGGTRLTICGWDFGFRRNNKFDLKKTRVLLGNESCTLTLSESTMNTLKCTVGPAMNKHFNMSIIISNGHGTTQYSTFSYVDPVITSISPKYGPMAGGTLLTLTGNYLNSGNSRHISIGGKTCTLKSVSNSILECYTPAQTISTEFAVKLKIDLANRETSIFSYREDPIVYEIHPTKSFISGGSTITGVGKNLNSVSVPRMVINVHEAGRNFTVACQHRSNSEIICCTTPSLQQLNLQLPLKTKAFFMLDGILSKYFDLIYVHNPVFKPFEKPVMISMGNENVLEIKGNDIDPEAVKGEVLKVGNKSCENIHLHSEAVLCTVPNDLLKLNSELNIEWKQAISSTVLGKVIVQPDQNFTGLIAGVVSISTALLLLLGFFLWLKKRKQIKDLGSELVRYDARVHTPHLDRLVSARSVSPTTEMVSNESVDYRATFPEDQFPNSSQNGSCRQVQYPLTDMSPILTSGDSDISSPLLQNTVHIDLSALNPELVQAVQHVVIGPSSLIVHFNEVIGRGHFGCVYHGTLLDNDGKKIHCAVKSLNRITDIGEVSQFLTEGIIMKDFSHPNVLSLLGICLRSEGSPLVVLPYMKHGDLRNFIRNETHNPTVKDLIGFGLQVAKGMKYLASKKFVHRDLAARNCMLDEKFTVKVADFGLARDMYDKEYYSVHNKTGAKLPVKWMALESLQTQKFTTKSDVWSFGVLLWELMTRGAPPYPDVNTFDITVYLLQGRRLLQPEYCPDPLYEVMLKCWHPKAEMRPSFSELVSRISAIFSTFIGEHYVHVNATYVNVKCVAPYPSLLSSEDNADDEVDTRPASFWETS

Turning to `CC(c1c(Cl)ccc(F)c1Cl)c1c[nH]c2ncc(-c3cnn(CCO)c3)cc12` (single isomer, unassigned) [Comparative Compound 1a, reference compound], the IC50 in assay [1] is over 10 µM; in assay [2] it was 0.758 µM.

As for `CC(c1c(Cl)ccc(F)c1Cl)c1c[nH]c2ncc(-c3cnn(CCO)c3)cc12` (stereo not drawn) [Comparative Compound 1b, reference compound], the IC50 in assay [1] stood at 5.09 µM; in assay [2], 0.0111 µM. For the compound `COc1ccc(Cl)c(Cc2c[nH]c3ncc(-c4cnn(C5CCNCC5)c4)nc23)c1Cl` [Embodiment 7], the IC50 in assay [3] is 0.0859 µM; in assay [1], over 10 µM; in assay [2], 0.0415 µM. In the same order, the values of `COc1cc(OC)c(F)c(Cc2c[nH]c3ncc(-c4cnn(C5CCNCC5)c4)cc23)c1F` [Embodiment 9] are 0.0008 µM, 0.0183 µM and 0.0113 µM.

For `COc1cc(OC)c(F)c(Cc2c[nH]c3ncc(-c4cn(C5CCNCC5)nc4C)cc23)c1F` [Embodiment 32], the IC50 in assay [1] was found to be 0.0135 µM; in assay [2], 0.0062 µM. The corresponding values for `CCN1CCC(n2cc(-c3cnc4[nH]cc(Cc5c(F)ccc(OC)c5F)c4c3)cn2)CC1` [Embodiment 38] are 0.599 µM and 0.0091 µM. On to `CCN1CCC(n2cc(-c3cnc4[nH]cc(Cc5c(F)ccc(OC)c5F)c4c3)c(C#N)n2)CC1` [Embodiment 45], for which the IC50 in assay [1] stood at 0.351 µM; in assay [2] it was 0.0091 µM. `CCN1CCC(n2ccc(-c3cnc4[nH]cc(Cc5c(F)c(OC)nc(OC)c5F)c4c3)n2)CC1` [Embodiment 75]: the figures for the IC50 in assay [1] and in assay [2] were 0.0106 µM and 0.00326 µM, respectively. The corresponding values for `COc1cc(OC)c(F)c(Cc2c[nH]c3ncc(-c4ccnc(N5CCN(C)CC5)c4)cc23)c1F` [Embodiment 78] are 0.0098 µM and 0.141 µM.

Consider `COc1cc(OC)c(F)c(Cc2n[nH]c3ncc(-c4cnn(C5CCNCC5)c4)cc23)c1F` [Hydrochloride of embodiment 2], for which the IC50 was determined as 0.137 µM in assay [1] and 0.0078 µM in assay [2]. Turning to `CCN1CCC(n2cc(-c3cnc4[nH]nc(Cc5c(F)c(OC)cc(OC)c5F)c4c3)cn2)CC1` [Hydrochloride of embodiment 3], the IC50 was determined as 0.148 µM in assay [1] and 0.0761 µM in assay [2]. In the same order, the values of `CCN1CCC(n2cc(-c3cnc4[nH]nc(Cc5c(F)ccc(OC)c5F)c4c3)cn2)CC1` [Hydrochloride of embodiment 4] are 0.799 µM and 0.177 µM. In the same order, the values of `COc1ccc(F)c(Cc2c[nH]c3ncc(-c4cn(C5CCNCC5)nc4C)cc23)c1F` [Hydrochloride of embodiment 36] are 0.684 µM and 0.0273 µM. The corresponding values for `CCN1CCC(n2cc(-c3cnc4[nH]cc(Cc5c(F)c(OC)cc(OC)c5F)c4c3)c(C)n2)CC1` [Hydrochloride of embodiment 37] are 0.0524 µM and 0.033 µM. As to `COc1cc(OC)c(F)c(Cc2c[nH]c3ncc(-c4cn(C5CCN(C)CC5)nc4C#N)cc23)c1F` [Hydrochloride of embodiment 43], the values for the IC50 in assay [1] and in assay [2] were 0.0617 µM and 0.0571 µM, respectively. In assay [3], `COc1cc(OC)c(F)c(Cc2c[nH]c3ncc(-c4cncc(C5=CCNCC5)n4)cc23)c1F` [Hydrochloride of embodiment 63] had an IC50 of 0.00941 µM. For the compound `CCN1CCC(c2cncc(-c3cnc4[nH]cc(Cc5c(F)c(OC)cc(OC)c5F)c4c3)n2)CC1` [Hydrochloride of embodiment 65], the IC50 in assay [1] came to 0.0027 µM; in assay [2], 0.135 µM.

Regarding `COc1cc(OC)c(F)c(Cc2c[nH]c3ncc(-c4cnn(CCNC(C)C)c4)cc23)c1F` [Hydrochloride of embodiment 68], the IC50 in assay [1] came out at 0.01 µM; in assay [2], 0.0535 µM.

For `COc1cc(OC)c(F)c(Cc2c[nH]c3ncc(-c4cnn(CCCNC(C)C)c4)cc23)c1F` [Hydrochloride of embodiment 72], the IC50 is 0.0531 µM in assay [1] and 0.0708 µM in assay [2]. The corresponding values for `CCN1CCC(n2cc(-c3cnc4[nH]c(C)c(Cc5c(F)c(OC)cc(OC)c5F)c4c3)cn2)CC1` [Hydrochloride of embodiment 74] are 0.0565 µM and 0.0042 µM.

Consider `COc1cc(OC)c(F)c(Cc2n[nH]c3ncc(-c4cnn(CCO)c4)cc23)c1F` [Trifluoroacetate salt of embodiment 1], for which the IC50 in assay [1] was found to be 0.0397 µM; in assay [2] it was 1.29 µM.

Regarding `COc1cc(OC)c(F)c(Cc2c[nH]c3ncc(-c4cnn(C5CCNCC5)c4)nc23)c1F` [Trifluoroacetate salt of embodiment 5], the values for the IC50 in assay [1] and in assay [2] were 0.0203 µM and 0.0472 µM, respectively. The corresponding values for `COc1ccc(Cl)c(Cc2c[nH]c3ncc(-c4cnn(C5CCNCC5)c4)cc23)c1Cl` [Trifluoroacetate salt of embodiment 10] are 1.71 µM and 0.0087 µM. Turning to `COc1cc(Cc2c[nH]c3ncc(-c4cnn(C5CCNCC5)c4)cc23)cc(OC)c1` [Trifluoroacetate salt of embodiment 11], the values for the IC50 in assay [3] and in assay [1] were 0.0171 µM and 0.55 µM, respectively. `CCN1CCC(n2cc(-c3cnc4[nH]cc(Cc5c(F)c(OC)cc(OC)c5F)c4c3)cn2)CC1` [Trifluoroacetate salt of embodiment 12]: the 50% inhibitory concentration (IC50) in assay [1] came to 0.036 µM; in assay [2] it was 0.00317 µM. In the case of `COc1cc(OC)c(F)c(Cc2c[nH]c3ncc(-c4cnn(C5CCN(C(C)=O)CC5)c4)cc23)c1F` [Trifluoroacetate salt of embodiment 17], the IC50 in assay [1] came out at 0.0075 µM; in assay [2] it was 0.0116 µM.

Consider `COc1cc(OC)c(F)c(Cc2c[nH]c3ncc(-c4cnn(C5CCN(S(C)(=O)=O)CC5)c4)cc23)c1F` [Trifluoroacetate salt of embodiment 18], for which the half-maximal inhibitory concentration (IC50) in assay [1] amounted to 0.0297 µM; in assay [2], 0.0161 µM. The corresponding values for `CNC(=O)c1cc(Cc2c[nH]c3ncc(-c4cnn(C5CCNCC5)c4)cc23)c(Cl)c(OC)c1` [Trifluoroacetate salt of embodiment 20] are 0.158 µM and 0.012 µM. On to `COc1cc(OC)c(F)c(Cc2c[nH]c3ncc(-c4cnn(C5CCOCC5)c4)cc23)c1F` [Trifluoroacetate salt of embodiment 22], for which the IC50 in assay [1] was determined as 0.0292 µM; in assay [2], 0.0238 µM.

For `COc1cc(OC)c(F)c(Cc2c[nH]c3ncc(-c4cnn(C5CNC5)c4)cc23)c1F` [Trifluoroacetate salt of embodiment 24], the values for the IC50 in assay [1] and in assay [2] were 0.252 µM and 0.0765 µM, respectively. The corresponding values for `COc1cc(OC)c(F)c(Cc2c[nH]c3ncc(-c4cnn(C5CN(C(C)=O)C5)c4)cc23)c1F` [Trifluoroacetate salt of embodiment 26] are 0.0353 µM and 0.0138 µM. As for `COc1cc(OC)c(F)c(Cc2c[nH]c3ncc(-c4cnn(C5CN(CCO)C5)c4)cc23)c1F` [Trifluoroacetate salt of embodiment 27], the values for the IC50 in assay [1] and in assay [2] were 0.0131 µM and 0.0067 µM, respectively. The corresponding values for `COc1cc(OC)c(F)c(Cc2c[nH]c3ncc(-c4cn(C5CCN(C)CC5)nc4C)cc23)c1F` [Trifluoroacetate salt of embodiment 35] are 0.0235 µM and 0.014 µM. In the same order, the values of `COc1cc(OC)c(F)c(Cc2c[nH]c3ncc(-c4cn(C)nc4C#N)cc23)c1F` [Trifluoroacetate salt of embodiment 44] are 0.0323 µM and 0.191 µM. `COc1cc(OC)c(Cl)c(Cc2c[nH]c3ncc(-c4cnn(C5CCNCC5)c4)cc23)c1Cl` [Trifluoroacetate salt of embodiment 49]: the IC50 in assay [1] turned out to be 0.529 µM; in assay [2], 0.0088 µM. `COc1cc(OC)c(F)c(Cc2c[nH]c3ncc(-c4ccc(N5CCN(C)CC5)nc4)cc23)c1F` [Trifluoroacetate salt of embodiment 62]: the half-inhibitory concentration (IC50) came to 0.0086 µM in assay [1] and 0.132 µM in assay [2]. For `COc1cc(OC)c(F)c(Cc2c[nH]c3ncc(-c4cnn(CCS(C)(=O)=O)c4)cc23)c1F` [Trifluoroacetate salt of embodiment 76], in assay [1], the IC50 is 0.00387 µM.

Compound `COc1nc(OC)c(F)c(Cc2c[nH]c3ncc(-c4cnn(CCS(C)(=O)=O)c4)cc23)c1F` [Trifluoroacetate salt of embodiment 77] yielded an IC50 in assay [1] of 0.00341 µM.
